This note sets out measurements from ChEMBL document CHEMBL1201862, “PubChem BioAssay data set” (2004).

Among the test systems are 786-0; CAKI-1; COLO 205; HCC 2998; HCT-15; HOP-92; KM12; MCF7; MOLT-4; Malme-3M; NCI-H460; NCI/ADR-RES; OVCAR-4; SF-295; SK-OV-3; SW-620; T47D; TK-10; UACC-257; UO-31.
Experiment in all cases: DTP human tumour cell line panel, 48 h

Structures are written as SMILES.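 Briefly, cells in 96-well plates were exposed to five compound concentrations for 48 h, and endpoints were estimated by linear interpolation. GI50 marks 50% less growth.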 The source made the active and inactive calls. No stated cut-off is given here; in the data, active = GI50 up to about 1.1 µM and inactive = higher. A value given as a limit tells only on which side of the number the result lay.

Broadly, the GI50 is the concentration that inhibits growth by half. Take `O=C(/N=C1/NCC(CN2CCN(c3ccccc3)CC2)O1)Nc1ccccc1` (stereo not given): the GI50 was > 100 µM (inactive) with 786-0; > 100 µM (inactive) with CAKI-1; > 100 µM (inactive) in the assay with COLO 205; > 100 µM (inactive) with HCC 2998; above 100 µM in the assay on HCT-15; > 100 µM (inactive) with HOP-92. Further, the GI50 was > 100 µM (inactive) in the assay with KM12; > 100 µM (inactive) in the assay on MCF7; 93.1 µM (inactive) in the assay on MOLT-4; > 100 µM (inactive) in the assay on Malme-3M; > 100 µM (inactive) in the assay on NCI-H460; > 100 µM (inactive) with NCI/ADR-RES. In addition, the GI50 with OVCAR-4, in the assay on SF-295, in the assay on SK-OV-3, in the assay on SW-620, with T47D and in the assay on TK-10 was > 100 µM (inactive) in each case. For the same molecule, the GI50 in the assay on UACC-257 and with UO-31 was > 100 µM (inactive) throughout.

With `C/C=C\C(CC(=O)NCCC1CN(C(=O)c2ccccc2)c2ccccc21)CC(=O)OC` (stereo not given), the GI50 in the assay on 786-0 is > 100 µM (inactive); with CAKI-1, > 100 µM (inactive); with COLO 205, > 100 µM (inactive); in the assay on HCC 2998, > 100 µM (inactive); with HCT-15, above 100 µM; with HOP-92 it was > 100 µM (inactive). Further, the GI50 with KM12, in the assay on MCF7, with MOLT-4, in the assay with Malme-3M, in the assay on NCI-H460 and in the assay on NCI/ADR-RES was > 100 µM (inactive) in each case. Besides, the GI50 in the assay with OVCAR-4, with SF-295, in the assay with SK-OV-3, with SW-620, with T47D and in the assay with TK-10 was > 100 µM (inactive) in each case. In addition, the GI50 in the assay on UACC-257 and in the assay on UO-31 was > 100 µM (inactive) in each case.

Turning to `COc1ccc2c(c1)c(=O)c1c(NCCNCCO)ccc3c(=O)n(CCN(C)C)c(=O)n2c31`, the GI50 with 786-0 was < 0.0117 µM (active); with CAKI-1, 0.0537 µM (active); in the assay on COLO 205 it was 0.0467 µM (active); with HCC 2998, < 0.0337 µM (active); in the assay with HCT-15, 0.23 µM; with HOP-92, 0.0766 µM (active). For the same molecule, the GI50 is 0.142 µM (active) with KM12; < 0.0276 µM (active) with MCF7; < 0.01 µM (active) in the assay on MOLT-4; 0.0989 µM (active) in the assay on Malme-3M; < 0.0202 µM (active) with NCI-H460; 1.26 µM (inactive) in the assay on NCI/ADR-RES. For the same molecule, the concentration for 50% growth inhibition (GI50) was 0.0895 µM (active) in the assay on OVCAR-4; 0.0861 µM (active) with SF-295; 0.251 µM (active) in the assay on SK-OV-3; < 0.0236 µM (active) in the assay with SW-620; 0.0769 µM (active) in the assay on T47D; 0.187 µM (active) with TK-10. The GI50 was 0.261 µM (active) in the assay with UACC-257 and 0.182 µM (active) in the assay with UO-31.

As for `CCOC(=O)C1(Cc2ccccc2)CCN(C(=O)c2ccccc2)C2C1C2(Cl)Cl` (stereo not given), the GI50 with 786-0 is 20.1 µM (inactive); in the assay on CAKI-1, 24.3 µM (inactive); in the assay with COLO 205, 18.3 µM (inactive); in the assay with HCC 2998 it was 14.5 µM (inactive); in the assay on HCT-15, 27.8 µM; in the assay on HOP-92, 26.6 µM (inactive). Moreover, the GI50 with KM12 is 29.9 µM (inactive); with MCF7, 25.4 µM (inactive); with MOLT-4, 20 µM (inactive); in the assay on Malme-3M it was 21.4 µM (inactive); with NCI-H460 it was 16.8 µM (inactive); in the assay on NCI/ADR-RES, 21.3 µM (inactive). The GI50 was 26 µM (inactive) with OVCAR-4; 23.3 µM (inactive) in the assay on SF-295; 28.6 µM (inactive) in the assay on SK-OV-3; 25.7 µM (inactive) in the assay on SW-620; 14.1 µM (inactive) in the assay with T47D; 24.4 µM (inactive) in the assay with TK-10. For the same molecule, the GI50 in the assay on UACC-257 was 15.2 µM (inactive); in the assay with UO-31, 28.4 µM (inactive).

With `Oc1cccc2cc(Br)cnc12`, the GI50 is 31 µM (inactive) with 786-0; 24.5 µM (inactive) in the assay on CAKI-1; 29.2 µM (inactive) with COLO 205; 27.9 µM (inactive) in the assay with HCC 2998; 4.43 µM with HCT-15; 16 µM (inactive) in the assay on HOP-92. Also, the GI50 with KM12 is 7.5 µM (inactive); in the assay on MCF7 it was 3.18 µM (inactive); in the assay with MOLT-4, 3.29 µM (inactive); with Malme-3M it was 7.96 µM (inactive); in the assay on NCI-H460 it was 5.89 µM (inactive); with NCI/ADR-RES, 3.68 µM (inactive). For the same molecule, the GI50 with OVCAR-4 was 2.86 µM (inactive); in the assay on SF-295, 6.15 µM (inactive); in the assay on SK-OV-3 it was 41.1 µM (inactive); in the assay on SW-620, 5.28 µM (inactive); with T47D it was 4.3 µM (inactive); with TK-10 it was 35.8 µM (inactive). In addition, the GI50 in the assay on UACC-257 was 4.78 µM (inactive); in the assay on UO-31 it was 6.98 µM (inactive).

For `C[C@@H](CC(=O)OCc1ccccc1)OC1OC(COC(=O)C(C)(C)C)C(OC(=O)C(C)(C)C)C(OC(=O)C(C)(C)C)C1OC(=O)C(C)(C)C` (stereo not given in full), the GI50 in the assay on 786-0 was > 100 µM (inactive); in the assay on CAKI-1, > 100 µM (inactive); with COLO 205 it was > 100 µM (inactive); in the assay on HCC 2998, > 100 µM (inactive); with HCT-15, above 100 µM; in the assay with HOP-92 it was > 100 µM (inactive). For the same molecule, the GI50 was > 100 µM (inactive) with KM12; > 100 µM (inactive) in the assay on MCF7; 94.4 µM (inactive) with MOLT-4; > 100 µM (inactive) in the assay with Malme-3M; > 100 µM (inactive) in the assay on NCI-H460; > 100 µM (inactive) with NCI/ADR-RES. Moreover, the GI50 in the assay with OVCAR-4, in the assay on SF-295, with SK-OV-3, with SW-620, with T47D and in the assay with TK-10 was > 100 µM (inactive) each time. Moreover, the GI50 in the assay on UACC-257 and in the assay with UO-31 was > 100 µM (inactive) in each case.
